The test relates to BDF1 mice, Lewis lung carcinoma iv, survival T/C. The test can be described thus: NCI In Vivo Anticancer Drug Screen. Data for tumor model Lewis Lung Carcinoma (intravenous) in B6D2F1 (BDF1) mice. To be noted: endpoint: median survival time, higher = longer survival. As for the experimental part: The antitumor activity of compounds was measured in mice bearing transplantable tumors. Survival or tumor size were measured and the results are expressed as the measurement made in the treated group (T) divided by the measurement made in the vehicle treated control group (C). The tumor model used in this assay is Lewis Lung Carcinoma (intravenous) in B6D2F1 (BDF1) mice

[1] abbreviates: dose: 3.12 mg/kg/injection, schedule: Q01DX009 (ip), vehicle: saline.
[2] abbreviates: dose: 6.25 mg/kg/injection, schedule: Q01DX009 (ip), vehicle: saline.
Where [3] appears, read: dose: 12.5 mg/kg/injection, schedule: Q01DX009 (ip), vehicle: saline.
Where [4] appears, read: dose: 25.0 mg/kg/injection, schedule: Q01DX009 (ip), vehicle: saline.
[5] abbreviates: dose: 50.0 mg/kg/injection, schedule: Q01DX009 (ip), vehicle: saline.
Where [6] appears, read: dose: 100.0 mg/kg/injection, schedule: Q01DX009 (ip), vehicle: saline.
Setting [7] is: dose: 6.25 mg/kg/injection, schedule: Q01DX009 (ip), vehicle: saline with Tween-80.
[8] abbreviates: dose: 12.5 mg/kg/injection, schedule: Q01DX009 (ip), vehicle: saline with Tween-80.
Where [9] appears, read: dose: 50.0 mg/kg/injection, schedule: Q01DX009 (ip), vehicle: Klucel (hydroxypropylcellulose) (HPC).
[10] abbreviates: dose: 100.0 mg/kg/injection, schedule: Q01DX009 (ip), vehicle: Klucel (hydroxypropylcellulose) (HPC).
[11] abbreviates: dose: 200.0 mg/kg/injection, schedule: Q01DX009 (ip), vehicle: Klucel (hydroxypropylcellulose) (HPC).
[12] abbreviates: dose: 400.0 mg/kg/injection, schedule: Q01DX009 (ip), vehicle: Klucel (hydroxypropylcellulose) (HPC).
The mark [13] stands for this setting: dose: 25.0 mg/kg/injection, schedule: Q01DX009 (ip), vehicle: saline with Tween-80.
Setting [14] is: dose: 50.0 mg/kg/injection, schedule: Q01DX009 (ip), vehicle: saline with Tween-80.
The mark [15] stands for this setting: dose: 100.0 mg/kg/injection, schedule: Q01DX009 (ip), vehicle: saline with Tween-80.
Setting [16] is: dose: 3.12 mg/kg/injection, schedule: Q01DX009 (ip), vehicle: saline with Tween-80.
Setting [17] is: dose: 1.56 mg/kg/injection, schedule: Q01DX009 (ip), vehicle: saline.
[18] abbreviates: dose: 25.0 mg/kg/injection, schedule: Q01DX009 (ip), vehicle: Klucel (hydroxypropylcellulose) (HPC).

“And” between values parts separate entries of the source, which are not always exact repeats. Equal entries are not always repeated. Toxic doses and inconclusive results are not listed.

`C=C(C)[C@@H]1CCc2c(O)c(O)c(=O)cc(C)c2C1`: the T/C runs as follows: under setting [1], 111 % of control; under setting [2], 106 % of control; under setting [3], 96 % of control; under setting [4], 101 % of control; under setting [5], 102 % of control; under setting [6], 101 % of control.
In the case of `CN=C(N)N/N=C(\c1ccccc1)c1ccc(Br)cc1`, the T/C was 95 % of control (dose: 1.5 mg/kg/injection, schedule: Q01DX009 (ip), vehicle: saline with Tween-80); 98 % of control (dose: 3.0 mg/kg/injection, schedule: Q01DX009 (ip), vehicle: saline with Tween-80); 99 % of control under setting [7]; 105 % of control under setting [8].
In the case of `O=C1CC2(C(=O)N1CN1CCOCC1)c1ccccc1-c1ccccc12`, the T/C was 94 % of control under setting [9], 98 % of control under setting [10], 101 % of control under setting [11] and 112 % of control under setting [12].
Take `Cc1ccc(N=NN(C)C)cc1`: the T/C is 100 % of control under setting [13], 105 % of control under setting [14] and 105 % of control under setting [15].
Regarding `CN(C)CCNc1ccc([N+](=O)[O-])c2sc3ccccc3c(=O)c12`, the T/C by setting is: under setting [7], 106 % of control; under setting [8], 109 % of control and 112 % of control; under setting [13], 104 % of control; under setting [14], 153 % of control.
Turning to `CC(=O)O[C@@H]1[C@@H](O)C2=C3[C@]4(C)[C@@H]1C(C)(C)C(=O)C[C@@H]4[C@]3(O)[C@H](OC(C)=O)[C@@]1(C[C@@H]1C)C2=O`, the T/C is 97 % of control under setting [16], 195 % of control under setting [7] and 162 % of control under setting [8].
Turning to `Nc1ccn(C2OC(CO)C(O)C2O)c(=O)n1` (centres undefined), the T/C is 98 % of control under setting [2]; 281 % of control (dose: 30.0 mg/kg/injection, schedule: Q01DX006 (ip), vehicle: saline); 234 % of control (dose: 60.0 mg/kg/injection, schedule: Q01DX009 (ip), vehicle: saline); 121 % of control (dose: 980.0 mg/kg/injection, schedule: Q04DX003 (ip), vehicle: saline); 93 % of control (dose: 2000.0 mg/kg/injection, schedule: Q04DX003 (ip), vehicle: saline).
With `NC(=O)c1ncn2c(=O)n(CCCl)nnc12`, the T/C is 103 % of control under setting [1], 120 % of control under setting [2], 159 % of control under setting [3] and 298 % of control under setting [4].
Consider `CCCNC1=C(C)C(=O)C2=C(C1=O)[C@H](COC(N)=O)[C@]1(OC)[C@@H]3N[C@@H]3CN21`, for which the T/C (dose: 0.39 mg/kg/injection, schedule: Q01DX009 (ip), vehicle: saline) was 104 % of control; the T/C (dose: 0.78 mg/kg/injection, schedule: Q01DX009 (ip), vehicle: saline) was 100 % of control; the T/C under setting [17] was 102 % of control; the T/C under setting [1] was 108 % of control.
Consider `O=P(O)(NCCCl)NCCCl`, for which the T/C is, setting by setting: (dose: 25.0 mg/kg/injection, schedule: Q01DX001 (ip), vehicle: saline with Tween-80) 111 % of control; (dose: 50.0 mg/kg/injection, schedule: Q01DX001 (ip), vehicle: saline with Tween-80) 123 % of control; (dose: 100.0 mg/kg/injection, schedule: Q01DX001 (ip), vehicle: saline with Tween-80) 208 % of control.
Take `CCN(C)N=Nc1ccc(C(N)=O)cc1`: the T/C by setting is: (dose: 6.25 mg/kg/injection, schedule: Q01DX009 (ip), vehicle: Klucel (hydroxypropylcellulose) (HPC)) 104 % of control; (dose: 12.5 mg/kg/injection, schedule: Q01DX009 (ip), vehicle: Klucel (hydroxypropylcellulose) (HPC)) 102 % of control; under setting [18], 109 % of control; under setting [9], 122 % of control; under setting [10], 87 % of control.
Turning to `Cc1ccc[c]([Hg][Cl])c1N=Nc1ccccc1`, the T/C reads like this: (dose: 0.78 mg/kg/injection, schedule: Q01DX009 (ip), vehicle: saline with Tween-80) 100 % of control; (dose: 1.56 mg/kg/injection, schedule: Q01DX009 (ip), vehicle: saline with Tween-80) 105 % of control; under setting [16], 90 % of control; under setting [7], 115 % of control; under setting [8], 94 % of control.
For `NC1=NC(=O)N2CC12` (centres undefined), the T/C is, setting by setting: under setting [3], 107 % of control; under setting [4], 110 % of control; under setting [5], 105 % of control; under setting [6], 105 % of control; (dose: 200.0 mg/kg/injection, schedule: Q01DX009 (ip), vehicle: saline) 109 % of control.
Turning to `O=C(NO)c1cc(O)c(O)c(O)c1`, the T/C is 100 % of control (dose: 25.0 mg/kg/injection, schedule: Q01DX009 (ip), vehicle: water); 100 % of control (dose: 50.0 mg/kg/injection, schedule: Q01DX009 (ip), vehicle: water); 97 % of control (dose: 100.0 mg/kg/injection, schedule: Q01DX009 (ip), vehicle: water); 97 % of control (dose: 200.0 mg/kg/injection, schedule: Q01DX009 (ip), vehicle: water).
For the compound `O=Cc1ccc(C=O)c(Cl)c1`, the T/C runs as follows: under setting [9], 101 % of control; under setting [10], 100 % of control; under setting [11], 105 % of control; under setting [12], 95 % of control.
As for `COc1ccc(CCNC(C)=O)cc1OC`, the T/C is, setting by setting: under setting [18], 90 % of control; under setting [9], 94 % of control; under setting [10], 103 % of control; under setting [11], 105 % of control.
With `COc1c2occc2cc2ccc(=O)oc12`, the T/C was 109 % of control (dose: 8.0 mg/kg/injection, schedule: Q01DX009 (ip), vehicle: saline with Tween-80); 109 % of control (dose: 16.0 mg/kg/injection, schedule: Q01DX009 (ip), vehicle: saline with Tween-80); 96 % of control (dose: 32.0 mg/kg/injection, schedule: Q01DX009 (ip), vehicle: saline with Tween-80); 113 % of control (dose: 64.0 mg/kg/injection, schedule: Q01DX009 (ip), vehicle: saline with Tween-80); 110 % of control (dose: 128.0 mg/kg/injection, schedule: Q01DX009 (ip), vehicle: saline with Tween-80).
Regarding `OCCOCCN1CCN(CCCN2c3ccccc3Sc3ccc(C(F)(F)F)cc32)CC1`, the T/C was 110 % of control under setting [17], 105 % of control under setting [1], 102 % of control under setting [2] and 123 % of control under setting [3].
On to `Nc1cc(=O)[nH][nH]1`, for which the T/C is, setting by setting: under setting [15], 99 % of control; (dose: 200.0 mg/kg/injection, schedule: Q01DX009 (ip), vehicle: saline with Tween-80) 91 % of control; (dose: 400.0 mg/kg/injection, schedule: Q01DX009 (ip), vehicle: saline with Tween-80) 95 % of control.

The values above are taken from PubChem BioAssay AID274 (DTP/NCI, 2004).
